Here are results for 7 compounds from ChEMBL document CHEMBL3797132, “State of affairs: Design and structure-activity relationships of reversible P2Y12 receptor antagonists” (Bioorg Med Chem Lett, 2016).

Series [1] is described as follows: Cmax in beagle dog at 10 mg/kg, po administered via oral gavage by LC/MS analysis. Type of series: ADME, organism-based, Canis lupus familiaris. To be noted: in vivo.
Series [2] concerns the target T1, P2Y purinoceptor 12 (Homo sapiens, UniProt Q9H244). Kind of series: Displacement of [3H]-2-Mes-ADP from human P2Y12 receptor.
Series [3] in a line: Terminal half life in beagle dog at 10 mg/kg, po administered via oral gavage by LC/MS analysis. Type of series: ADME, organism-based, Canis lupus familiaris. To be noted: in vivo, read-out: beta t1/2 (converted).
The nature of series [4]: Oral bioavailability in rat. Format: ADME, organism-based. To be noted: in vivo.
Series [5] addresses T1, P2Y purinoceptor 12. Nature of the series: Antagonist activity at P2Y12 receptor (unknown origin) by GTPgammaS binding assay. Format: functional. (In general: Binding of GTPγS marks nucleotide exchange on a G protein.)
Series [6] has as its target T1, P2Y purinoceptor 12. Kind of series: Binding affinity to P2Y12 receptor (unknown origin).
Series [7] in a line: Clearance in rat. Format: ADME, organism-based. To be noted: in vivo.
Series [8] concerns the target T1, P2Y purinoceptor 12. Kind of series: Displacement of [3H]-2-Mes-ADP from human P2Y12 receptor in platelets by scintillation counter.
The target in series [9] is T1, P2Y purinoceptor 12. Nature of the series: Antagonist activity at P2Y12 receptor (unknown origin).

T1 sequence (Q9H244 whole entry): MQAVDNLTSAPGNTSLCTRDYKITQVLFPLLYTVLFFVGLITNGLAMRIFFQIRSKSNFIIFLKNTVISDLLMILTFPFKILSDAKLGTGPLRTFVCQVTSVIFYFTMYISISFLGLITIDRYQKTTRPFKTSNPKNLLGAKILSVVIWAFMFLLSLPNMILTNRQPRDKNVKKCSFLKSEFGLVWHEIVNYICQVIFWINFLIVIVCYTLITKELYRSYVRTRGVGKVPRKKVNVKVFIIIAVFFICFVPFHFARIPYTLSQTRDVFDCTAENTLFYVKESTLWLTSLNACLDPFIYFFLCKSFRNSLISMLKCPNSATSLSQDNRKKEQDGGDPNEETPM

Turning to `CCOC(=O)N1CCN(C(=O)[C@H](CCC(=O)O)NC(=O)c2cc(OC(C)(C)C(=O)OCC)c3ccc(C)cc3n2)CC1`, in [1], the Cmax (in general, the highest concentration seen after dosing) amounted to 14 µM. Besides, on P2Y purinoceptor 12 [2], the IC50 – broadly, the midpoint of a concentration-inhibition curve – was found to be 0.029 µM. The half-life in [3] is 0.2 h.
With `CCOC(=O)c1cc(C#N)c(N2CCN(C(=O)NS(=O)(=O)c3ccc(Cl)s3)CC2)nc1C`, the bioavailability (as a rule, the share of a dose that reaches the circulation, judged against a reference dose that is usually intravenous) in series [4] is 15%. Besides, the IC50 at P2Y purinoceptor 12 [5] was 0.07 µM; at P2Y purinoceptor 12 [6], 0.04 µM. Further, the clearance (usually the volume of plasma or blood freed of the substance per unit of time) in series [7] was determined as 16 mL/min/kg.
In turn, `CCOC(=O)c1cc(C#N)c(N2CC(C(=O)NS(=O)(=O)c3ccc(Cl)s3)C2)nc1C` displayed an IC50 on P2Y purinoceptor 12 [6] of 0.06 µM. This compound returned a clearance in series [7] of 3 mL/min/kg.
At P2Y purinoceptor 12 [2], `CCOC(=O)N1CCN(C(=O)[C@H](CCC(=O)O)NC(=O)c2cc(OC(C)(C)C(=O)O)c3ccc(C)cc3n2)CC1` gave a half-maximal inhibitory concentration (IC50) of 0.0053 µM. Moreover, the half-life in [3] is 7 h.
As for `CCc1cnc(-c2cc(C#N)c(N3CC(C(=O)NS(=O)(=O)c4ccc(Cl)s4)C3)nc2C)o1`, the IC50 at P2Y purinoceptor 12 [5] stood at 0.022 µM; on P2Y purinoceptor 12 [6], 0.44 µM. Moreover, in series [7], the clearance came to 16 mL/min/kg.
Compound `CNc1cc2[nH]c(=O)n(-c3ccc(NC(=O)NS(=O)(=O)c4ccc(Cl)s4)cc3)c(=O)c2cc1F` [ELINOGREL] yielded an IC50 at P2Y purinoceptor 12 [8] below 0.01 µM.
On P2Y purinoceptor 12 [9], `CCCSc1nc(N[C@@H]2C[C@H]2c2ccc(F)c(F)c2)c2nnn([C@@H]3C[C@H](OCCO)[C@@H](O)[C@H]3O)c2n1` [TICAGRELOR] showed an IC50 of 0.00501 µM.
